The target in the assay is T1, human recombinant OX2 (hOX2) receptor (Homo sapiens, UniProt O43614).
T1 construct: host or cells: CHO cells
T1 sequence (O43614 1-444): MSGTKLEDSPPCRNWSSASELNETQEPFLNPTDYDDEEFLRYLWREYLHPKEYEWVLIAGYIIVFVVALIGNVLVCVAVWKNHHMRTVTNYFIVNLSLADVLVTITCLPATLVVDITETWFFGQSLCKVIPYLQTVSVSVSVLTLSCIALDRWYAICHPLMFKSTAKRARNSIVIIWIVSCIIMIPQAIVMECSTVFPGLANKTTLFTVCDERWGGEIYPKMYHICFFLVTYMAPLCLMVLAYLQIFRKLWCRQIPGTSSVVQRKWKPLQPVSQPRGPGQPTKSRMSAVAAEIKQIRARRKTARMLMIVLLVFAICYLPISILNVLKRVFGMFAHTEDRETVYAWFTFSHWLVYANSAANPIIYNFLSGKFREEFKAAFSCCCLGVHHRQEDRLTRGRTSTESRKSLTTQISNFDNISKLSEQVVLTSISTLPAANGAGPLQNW
The assay is described as follows: IP-1 accumulation assay (IP-One HTRF) in hOX2-CHO cells. The format is cell-based. The settings on record: 60 min at 37° C., mean of at least two independent experiments, read-out: EC50_OX2R Category. On the procedure: Example 94: IP-1 Accumulation Assay
The accumulation of Inositol-1 Monophosphate (IP-1) was measured using IP-One HTRF® Terbium cryptate based assay (Cisbio) in human recombinant OX1 (hOX1) and at OX2 (hOX2) receptors expressed in CHO cells (DiscoverX) according to the manufacturer's instructions for cells tested in suspension.
hOX1-CHO and hOX2-CHO cells were seeded into white 384-well plates at a density of 20,000 cells/well in Hank's Balanced Salt Solution (HBSS) containing 20 mM HEPES pH 7.4, 50 mM, LiCl and 0.1% and Bovine Serum Albumin (BSA).
Compounds of the present disclosure were tested in a 11 points concentration response curve (CRC) serially diluted in neat DMSO at 200 fold concentrations and added by Echo acoustic liquid handling (Labcyte) to the cells (0.5% DMSO final in the assay). After 60 min of incubation at 37° C. detection reagents, IP1-d2 tracer and anti-IP1-cryptate were diluted in lysis buffer according to the manufacturer's descriptions and added to the cells.
Following 60 mi incubation at room temperature, time-resolved fluorescence (HTRF) was measured at 615 nm and 665 nm by Envision Multilabel reader (Perkin Elmer) and the HTRF ratio (A665/A615×10^4) was calculated.
The IP-1 accumulation response was expressed as percentage of the maximal OX-A response.
Curve fitting and EC50 estimations were carried out using a four-parameter logistic model using XLfit Software. Mean data of EC50 are calculated from at least two independent experiments performed in duplicates.

A value given as a limit tells only on which side of the number the result lay.

As to `COC(=O)N1CCC[C@@]2(COCC(=O)N2)[C@@H]1CO[C@H]1CC[C@@H](c2ccccc2)CC1` (single isomer, unassigned) [Example 6], the EC50 fell in the range of 0.1 to 1 µM. Regarding `O=C1N[C@]2(CCCN(C(=O)[C@H]3C[C@@H](F)C3)[C@H]2CO[C@H]2CC[C@@H](c3ccccc3)CC2)CCO1` (single isomer, unassigned) [Example 66], the EC50 was below 0.1 µM.

Consider `CCNC(=O)N1[C@H](C)C[C@]2(COCC(=O)N2)[C@H]1CO[C@H]1CC[C@@H](c2ccccc2)CC1` [Example 48, (1S,3R,5R)-N-ethyl-3-methyl-7-oxo-1-({[(CIS)-4-phenylcyclohexyl]oxy}methyl)-9-oxa-2,6-diazaspiro[4.5] decane-2-carboxamide], for which the EC50 is above 10 µM.

Regarding `C[C@@H]1C[C@@]2(COCC(=O)N2)[C@H](Cc2cccc(-c3cc(F)cc(F)c3)c2F)N1C(=O)[C@H]1C[C@@H](F)C1` [Example 82, (1S,3R,5S)-3-methyl-2-[(1s,3s)-3-fluorocyclobutanecarbonyl]-1-({2,3′,5′-trifluoro-[1,1′-biphenyl]-3-yl}methyl)-9-oxa-2,6-diazaspiro[4.5]decan-7-one], the EC50 was below 0.1 µM. For `CCNC(=O)N1CCCC2(CCOC(=O)N2)C1CO[C@H]1CC[C@@H](c2ccccc2)CC1` (stereo partly drawn) [Example 11, (CIS)-N-ethyl-2-oxo-7-({[(CIS)-4-phenylcyclohexyl]oxy}methyl)-3-oxa-1,8-diazaspiro[5.5]undecane-8-carboxamide], the EC50 is below 0.1 µM. Regarding `C[C@@H]1C[C@@]2(COCC(=O)N2)[C@H](Cc2cccc(-c3cc(F)cc(F)c3)c2F)N1C(=O)C(C)(C)O` [Example 54, (1S,3R,5S)-2-(2-hydroxy-2-methylpropanoyl)-3-methyl-1-({2,3′,5′-trifluoro-[1,1′-biphenyl]-3-yl}methyl)-9-oxa-2,6-diazaspiro[4.5]decan-7-one], the EC50 was in the range of 0.1 to 1 µM. Consider `CCNC(=O)N1CCC[C@@]2(CNS(=O)(=O)N2)[C@@H]1Cc1cccc(-c2ccccc2)c1` (single isomer, unassigned) [Example 31], for which the EC50 was above 10 µM. On to `O=C1COCC2(CCN(C(=O)[C@H]3C[C@@H](F)C3)C2Cc2cccc(-c3cc(F)cc(F)c3)c2F)N1` (mixture of isomers) [Example 71, rel-(1S,5S)-2-[(1s,3s)-3-fluorocyclobutanecarbonyl]-1-({2,3′,5′-trifluoro-[1,1′-biphenyl]-3-yl}methyl)-9-oxa-2,6-diazaspiro[4.5]decan-7-one], for which the EC50 lay within 0.1 to 1 µM. For the molecule `O=C1COC[C@@]2(CCCN(C(=O)C3CC3)[C@H]2CO[C@H]2CC[C@@H](c3ccccc3)CC2)N1` (single isomer, unassigned) [Example 9], the EC50 fell in the range of 0.1 to 1 µM. Next, `CCNC(=O)N1CCC(F)(F)[C@@]2(CCOC(=O)N2)[C@@H]1CO[C@H]1CC[C@@H](c2ccccc2)CC1` (single isomer, unassigned) [Example 45]: below 0.1 µM; `COC(=O)N1CCC[C@]2(CCOC(=O)N2)[C@@H]1Cc1cccc(-c2ccccc2)c1` (single isomer, unassigned) [Example 22]: above 10 µM; `O=C1N[C@]2(CCO1)[C@H](Cc1cccc(-c3cc(F)cc(F)c3)c1F)N(C(=O)[C@H]1C[C@@H](F)C1)CC2(F)F` (relative stereo) [Example 79, rel-(1S,5R)-4,4-difluoro-2-[(CIS)-3-fluorocyclobutanecarbonyl]-1-({2,3′,5′-trifluoro-[1,1′-biphenyl]-3-yl}methyl)-8-oxa-2,6-diazaspiro[4.5]decan-7-one]: 0.1 to 1 µM.

In the case of `C[C@@H]1C[C@@]2(COCC(=O)N2)[C@H](Cc2cccc(-c3cc(F)cc(F)c3)c2F)N1C(=O)C1CC1F` (single isomer, unassigned) [Example 90], the EC50 lay in the range of 0.1 to 1 µM. Regarding `O=C1COC[C@@]2(CCN(C(=O)[C@H]3C[C@@H](F)C3)[C@H]2Cc2cccc(-c3cc(F)cc(F)c3)c2F)N1` (single isomer, unassigned) [Example 72], the EC50 was 0.1 to 1 µM. Take `CCNC(=O)N1CCC[C@]2(COC(C)C(=O)N2)[C@H]1CO[C@H]1CC[C@@H](c2ccccc2)CC1` (single isomer, unassigned) [Example 39]: the EC50 was above 10 µM. As to `CCNC(=O)N1CCCC2(COCC(=O)N2)C1CO[C@H]1CC[C@@H](c2ccccc2)CC1` (mixture of isomers) [Example 1, (CIS)-N-ethyl-2-oxo-7-({[(CIS)-4-phenylcyclohexyl]oxy}methyl)-4-oxa-1,8-diazaspiro[5.5]undecane-8-carboxamide], the EC50 was below 0.1 µM. Regarding `CCNC(=O)N1CCC2(COCC(=O)N2)C1CO[C@H]1CC[C@@H](c2ccccc2)CC1` (mixture of isomers) [Example 15, (CIS)-N-ethyl-7-oxo-1-({[(CIS)-4-phenylcyclohexyl]oxy}methyl)-9-oxa-2,6-diazaspiro[4.5]decane-2-carboxamide], the EC50 was 1 to 10 µM.

Take `CCNC(=O)N1CCC(F)(F)[C@]2(CCOC(=O)N2)[C@H]1CO[C@H]1CC[C@@H](c2ccccc2)CC1` (single isomer, unassigned) [Example 46]: the EC50 is above 10 µM.

Take `O=C1NC2(CCCN(C(=O)OCC(F)F)C2CO[C@H]2CC[C@@H](c3ccccc3)CC2)CCO1` (mixture of isomers) [Example 65, 2,2-difluoroethyl-rel-(6R,7R)-2-oxo-7-({[(CIS)-4-phenylcyclohexyl]oxy}methyl)-3-oxa-1,8-diazaspiro[5.5] undecane-8-carboxylate]: the EC50 was in the range of 0.1 to 1 µM.

In the case of `CCNC(=O)N1CCC[C@@]2(CCOC(=O)N2)[C@H]1Cc1cccc(-c2ccccc2)c1` (racemic) [Example 25, (Trans)-7-({[1,1′-biphenyl]-3-yl}methyl)-N-ethyl-2-oxo-3-oxa-1,8-diazaspiro[5.5]undecane-8-carboxamide], the EC50 was above 10 µM.

As to `O=C1N[C@@]2(CCN(C(=O)OCC(F)F)[C@@H]2Cc2cccc(-c3cc(F)cc(F)c3)c2F)COC1F` (single isomer, unassigned) [Example 75], the EC50 is above 10 µM. Next, `C[C@@H]1C[C@@]2(COCC(=O)N2)[C@H](CO[C@H]2CC[C@@H](c3ccccc3)CC2)N1C(=O)N1CC(F)(F)C1` [Example 52, (1R,3R,5S)-2-(3,3-difluoroazetidine-1-carbonyl)-3-methyl-1-({[(CIS)-4-phenylcyclohexyl]oxy}methyl)-9-oxa-2,6-diazaspiro[4.5]decan-7-one]: 1 to 10 µM. As to `CCNC(=O)N1C[C@@H](C)C2(COCC(=O)N2)C1Cc1cccc(-c2cc(F)cc(F)c2)c1F` (mixture of isomers) [Example 70, rel-(1S,5S)-(4S)-N-ethyl-4-methyl-7-oxo-1-({2,3′,5′-trifluoro-[1,1′-biphenyl]-3-yl}methyl)-9-oxa-2,6-diazaspiro[4.5]decane-2-carboxamide], the EC50 is 1 to 10 µM.

For the molecule `CCNC(=O)N1CC[C@@]2(COCC(=O)N2)[C@@H]1CO[C@H]1CC[C@@H](c2ccccc2)CC1` (single isomer, unassigned) [Example 16], the EC50 lay in the range of 0.1 to 1 µM. The figure for `COCCNC(=O)N1[C@H](C)C[C@@]2(COCC(=O)N2)[C@@H]1CO[C@H]1CC[C@@H](c2ccccc2)CC1` [Example 51, (1R,3R,5S)-N-(2-methoxyethyl)-3-methyl-7-oxo-1-({[(CIS)-4-phenylcyclohexyl]oxy}methyl)-9-oxa-2,6-diazaspiro[4.5]decane-2-carboxamide] is below 0.1 µM. Consider `COC(=O)N1[C@H](C)C[C@@]2(COCC(=O)N2)[C@@H]1Cc1cccc(-c2cc(F)cc(F)c2)c1F` [Example 85, Methyl (1S,3R,5S)-3-methyl-7-oxo-1-({2,3′,5′-trifluoro-[1,1′-biphenyl]-3-yl}methyl)-9-oxa-2,6-diazaspiro[4.5]decane-2-carboxylate], for which the EC50 was above 10 µM. For the molecule `C[C@@H]1C[C@@]2(COCC(=O)N2)[C@H](Cc2cccc(-c3cc(F)cc(F)c3)c2F)N1C(=O)[C@H]1CCO1` [Example 89, (1S,3R,5S)-3-methyl-2-[(2R)-oxetane-2-carbonyl]-1-({2,3′,5′-trifluoro-[1,1′-biphenyl]-3-yl}methyl)-9-oxa-2,6-diazaspiro[4.5]decan-7-one], the EC50 was in the range of 0.1 to 1 µM. As for `CCNC(=O)N1CCCC2(COCC(=O)N2)C1COC1CCN(c2ncc(F)cn2)CC1` (racemic) [Example 76, rel-(6S,7R)-N-ethyl-7-({[1-(5-fluoropyrimidin-2-yl)piperidin-4-yl]oxy}methyl)-2-oxo-4-oxa-1,8-diazaspiro[5.5]undecane-8-carboxamide], the EC50 was 0.1 to 1 µM. As to `COC(=O)N1CCC[C@]2(CCOC(=O)N2)[C@H]1Cc1cccc(-c2ccccc2)c1` (single isomer, unassigned) [Example 20], the EC50 is above 10 µM.

The values above are taken from US20240254143A1, “OREXIN RECEPTOR AGONISTS AND USES THEREOF” (JAZZ PHARMACEUTICALS IRELAND LIMITED, priority 2021, published 2024).
